Like-named read-outs stand apart in the source and are kept apart here.
Key:
CDK4 = CDK4 (Homo sapiens, UniProt P11802+Q16531); test: CDK4 percentage degradation in Calu-1 cells (Table 6); assay type: cell-based; design: Cells that express cyclin D1-3 and CDK4/6 proteins were treated with heterobifunctional compounds; endogenous in cells; host or cells: Calu-1; details: 16 hours; for inhibition at 0.04 µM: 40 nM; for inhibition at 0.2 µM: 200 nM
Method in brief: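 Calu-1 cells exposed to heterobifunctional compounds at 40 nM or 200 nM for 16 h. Cyclin D1 and CDK4 levels measured by Western blot of RIPA lysates (BCA-normalised loading), bands quantified by densitometry and expressed as percentage degradation.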

MCF7 cells = test: Anti-proliferation (viability) of MCF7 cells (Table 7, FIG. 2B); assay type: cell-based; details: 3-6 days, 10-point serial dilution, read-out: GI IC50 in MCF-7

Chain of CDK4 (P11802 2-303 limits assumed): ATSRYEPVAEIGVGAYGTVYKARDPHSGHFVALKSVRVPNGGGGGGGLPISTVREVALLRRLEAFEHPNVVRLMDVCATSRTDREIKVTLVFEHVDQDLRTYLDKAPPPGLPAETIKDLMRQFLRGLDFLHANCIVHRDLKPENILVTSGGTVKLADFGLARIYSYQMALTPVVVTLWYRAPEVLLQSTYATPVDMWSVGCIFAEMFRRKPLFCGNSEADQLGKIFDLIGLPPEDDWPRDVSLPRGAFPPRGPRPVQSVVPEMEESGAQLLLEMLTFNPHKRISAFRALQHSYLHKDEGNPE
Chain of CDK4 (P24385 whole entry partner): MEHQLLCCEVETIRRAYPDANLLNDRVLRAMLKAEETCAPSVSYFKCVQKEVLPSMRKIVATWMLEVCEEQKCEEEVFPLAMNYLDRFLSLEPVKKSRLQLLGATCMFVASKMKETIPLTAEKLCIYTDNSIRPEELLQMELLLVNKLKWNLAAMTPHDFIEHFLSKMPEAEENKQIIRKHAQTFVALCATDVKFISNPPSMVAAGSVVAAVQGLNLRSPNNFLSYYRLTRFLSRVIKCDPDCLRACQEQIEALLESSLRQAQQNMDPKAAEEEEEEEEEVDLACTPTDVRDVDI
Chain of CDK4 (Q16531 2-1140 limits assumed): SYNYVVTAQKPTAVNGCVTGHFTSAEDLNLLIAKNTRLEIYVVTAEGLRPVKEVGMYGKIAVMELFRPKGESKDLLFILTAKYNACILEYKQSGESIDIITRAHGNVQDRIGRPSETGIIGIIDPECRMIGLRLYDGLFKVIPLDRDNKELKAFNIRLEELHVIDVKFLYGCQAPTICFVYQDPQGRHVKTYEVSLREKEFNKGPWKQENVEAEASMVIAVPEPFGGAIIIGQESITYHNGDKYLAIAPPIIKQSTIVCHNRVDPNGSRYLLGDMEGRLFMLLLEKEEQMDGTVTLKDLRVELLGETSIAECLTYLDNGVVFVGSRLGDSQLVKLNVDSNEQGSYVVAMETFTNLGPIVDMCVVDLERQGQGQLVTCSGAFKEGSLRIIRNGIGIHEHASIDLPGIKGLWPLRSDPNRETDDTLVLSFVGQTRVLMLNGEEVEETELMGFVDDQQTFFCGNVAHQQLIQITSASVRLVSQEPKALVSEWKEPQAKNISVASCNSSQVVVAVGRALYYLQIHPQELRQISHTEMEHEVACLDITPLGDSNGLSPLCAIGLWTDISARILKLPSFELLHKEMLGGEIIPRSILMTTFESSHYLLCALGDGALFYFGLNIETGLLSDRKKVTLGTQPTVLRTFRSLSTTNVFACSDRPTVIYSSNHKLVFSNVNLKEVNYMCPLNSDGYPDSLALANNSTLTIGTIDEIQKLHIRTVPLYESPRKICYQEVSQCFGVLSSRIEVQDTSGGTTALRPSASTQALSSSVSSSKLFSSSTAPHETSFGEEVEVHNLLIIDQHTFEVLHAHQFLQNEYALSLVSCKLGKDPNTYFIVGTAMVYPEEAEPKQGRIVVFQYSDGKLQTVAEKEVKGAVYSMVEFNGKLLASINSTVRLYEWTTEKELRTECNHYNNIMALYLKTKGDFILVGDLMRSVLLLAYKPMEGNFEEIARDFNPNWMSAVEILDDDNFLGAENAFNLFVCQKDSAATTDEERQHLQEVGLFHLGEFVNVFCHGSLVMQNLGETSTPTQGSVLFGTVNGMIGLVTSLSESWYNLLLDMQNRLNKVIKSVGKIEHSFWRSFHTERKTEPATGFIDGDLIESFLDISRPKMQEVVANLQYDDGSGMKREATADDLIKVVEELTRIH

| Structure (SMILES) | inhibition at 0.04 µM (CDK4) [%] | inhibition at 0.2 µM (CDK4) [%] | IC50 (MCF7 cells; Homo sapiens, MCF7, MCF7 cells) [nM] | IC50 (MCF7 cells; MCF7 cells) [nM] |
| --- | --- | --- | --- | --- |
| COc1cccc(NC(=O)c2ccc(NC(C)C)nc2NC2CC3(CC(NC(=O)CN4CCN(c5ccc(Nc6ncc7c(C)c(C(C)=O)c(=O)n(C8CCCC8)c7n6)nc5)CC4)C3)C2)n1 (stereo not drawn) [CPD-453, 2-((6-(2-(4-(6-((6-acetyl-8-cyclopentyl-5-methyl-7-oxo-7,8-dihydropyrido[2,3-d]pyrimidin-2-yl)amino)pyridin-3-yl)piperazin-1-yl)acetamido)spiro[3.3]heptan-2-yl)amino)-6-(isopropylamino)-N-(6-methoxypyridin-2-yl)nicotinamide] | – | – | 50 to 100 | – |
| CC(=O)c1c(C)c2cnc(Nc3ccc(N4CCN(C5CCN(C(=O)C6(O)CCC(Nc7nc(NC(C)C)ccc7C(=O)Nc7ccc(N(C)C)nn7)CC6)C5)CC4)cn3)nc2n(C2CCCC2)c1=O (stereo not drawn) [CPD-575, 2-((trans-4-(3-(4-(6-((6-acetyl-8-cyclopentyl-5-methyl-7-oxo-7,8-dihydropyrido[2,3-d]pyrimidin-2-yl)amino)pyridin-3-yl)piperazin-1-yl)pyrrolidine-1-carbonyl)-4-hydroxycyclohexyl)amino)-N-(6-(dimethylamino)pyridazin-3-yl)-6-(isopropylamino)nicotinamide] | – | – | – | > 100 |

Continued, values first:

| inhibition at 0.04 µM (CDK4) [%] | inhibition at 0.2 µM (CDK4) [%] | IC50 (MCF7 cells; Homo sapiens, MCF7, MCF7 cells) [nM] | IC50 (MCF7 cells; MCF7 cells) [nM] | Structure (SMILES) |
| --- | --- | --- | --- | --- |
| 50 to 80 | 50 to 80 | < 50 | – | CNc1ccc(C(=O)Nc2ccc(N(C)C)nn2)c(NC2CC(Cn3cc(CN4CCN(c5ccc(Nc6ncc7c(C)c(C(C)=O)c(=O)n(C8CCCC8)c7n6)nc5)CC4)nn3)C2)n1 (stereo not drawn) [CPD-202, 2-((3-((4-((4-(6-((6-acetyl-8-cyclopentyl-5-methyl-7-oxo-7,8-dihydropyrido[2,3-d]pyrimidin-2-yl)amino)pyridin-3-yl)piperazin-1-yl)methyl)-1H-1,2,3-triazol-1-yl)methyl)cyclobutyl)amino)-N-(6-(dimethylamino)pyridazin-3-yl)-6-(methylamino)nicotinamide] |
| 50 to 80 | 50 to 80 | < 50 | – | CNc1ccc(C(=O)Nc2ccc(N(C)C)nn2)c(NC2CCN(C(=O)CCN3CCN(c4ccc(Nc5ncc6c(C)c(C(C)=O)c(=O)n(C7CCCC7)c6n5)nc4)CC3)CC2)n1 [CPD-203, 2-((1-(3-(4-(6-((6-acetyl-8-cyclopentyl-5-methyl-7-oxo-7,8-dihydropyrido[2,3-d]pyrimidin-2-yl)amino)pyridin-3-yl)piperazin-1-yl)propanoyl)piperidin-4-yl)amino)-N-(6-(dimethylamino)pyridazin-3-yl)-6-(methylamino)nicotinamide] |
| 50 to 80 | 50 to 80 | < 50 | – | CC(=O)c1c(C)c2cnc(Nc3ccc(N4CCN(CC(=O)NCC5CC(Nc6nc(NC(C)C)ccc6C(=O)Nc6cc(C)n(C)n6)C5)CC4)cn3)nc2n(C2CCCC2)c1=O (stereo not drawn) [CPD-205, 2-((3-((2-(4-(6-((6-acetyl-8-cyclopentyl-5-methyl-7-oxo-7,8-dihydropyrido[2,3-d]pyrimidin-2-yl)amino)pyridin-3-yl)piperazin-1-yl)acetamido)methyl)cyclobutyl)amino)-N-(1,5-dimethyl-1H-pyrazol-3-yl)-6-(isopropylamino)nicotinamide] |
| – | – | < 50 | – | CC(=O)c1c(C)c2cnc(Nc3ccc(N4CCN(CC(=O)NC5CC6(C5)CC(Nc5nc(NC(C)C)ccc5C(=O)Nc5cc(C)n(C7CC7)n5)C6)CC4)cn3)nc2n(C2CCCC2)c1=O (stereo not drawn) [CPD-452, 2-((6-(2-(4-(6-((6-acetyl-8-cyclopentyl-5-methyl-7-oxo-7,8-dihydropyrido[2,3-d]pyrimidin-2-yl)amino)pyridin-3-yl)piperazin-1-yl)acetamido)spiro[3.31]heptan-2-yl)amino)-N-(1-cyclopropyl-5-methyl-1H-pyrazol-3-yl)-6-(isopropylamino)nicotinamide] |

Source: patent publication US20260297081A1, “COMPOUNDS AND METHODS OF TREATING CANCERS” (Cullgen Inc., priority 2023, published 2026)
